Reference: ChEMBL document CHEMBL1201862, “PubChem BioAssay data set” (2004)
Active and inactive are the calls of the source.

Tests used:
Vero [1] = assay: mammalian cell viability reduction – secondary assay, cytotoxicity control for West Nile virus antiviral project, dose response (AID 1650); type: functional; details: Chlorocebus sabaeus
Cytochrome P450 2C9 = Cytochrome P450 2C9 (Homo sapiens, UniProt P11712)
[2] = molecular target: Protein-tyrosine kinase 2-beta (Homo sapiens, UniProt Q14289);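 also: potency of inhibitors of PYK2 kinase phosphorylation of poly-GT substrate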
Cytochrome P450 3A4 = Cytochrome P450 3A4 (Homo sapiens, UniProt P08684); details: Potency;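 also: confirmatory qHTS run detecting inhibitors and substrates of CYP3A4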
Cytochrome P450 2C19 = Cytochrome P450 2C19 (Homo sapiens, UniProt P33261); assay: qHTS Assay for Inhibitors and Substrates of Cytochrome P450 2C19. [Related pubchem assays: 410 ]; type: ADME; details: read-out: Potency
[3] = microbe, parasite or virus in culture; type: functional; details: Mycobacterium tuberculosis
[4] = molecular target: Heat shock protein HSP 90-alpha (Homo sapiens, UniProt P07900); type: functional, organism-based
[5] = A High Throughput Confirmatory Assay used to Identify Novel Compounds that Inhibit Mycobacterium Tuberculosis in the absence of Glycerol.; type: functional
[6] = molecular target: Sphingosine 1-phosphate receptor 2 (Homo sapiens, UniProt O95136); assay: Dose Response Cell Based Assay for Agonists of the S1P2 Receptor of Purchased Analogues. [Related pubchem assays: 729, 843, 854, 736 ]; type: functional
[7] = molecular target: T1, Dual specificity protein phosphatase 6 (Rattus norvegicus, UniProt Q64346); assay: inhibition of rat DUSP6 enzyme activity – biochemical, in vitro, primary screen (AID 425)
T1 sequence (Q64346 whole entry): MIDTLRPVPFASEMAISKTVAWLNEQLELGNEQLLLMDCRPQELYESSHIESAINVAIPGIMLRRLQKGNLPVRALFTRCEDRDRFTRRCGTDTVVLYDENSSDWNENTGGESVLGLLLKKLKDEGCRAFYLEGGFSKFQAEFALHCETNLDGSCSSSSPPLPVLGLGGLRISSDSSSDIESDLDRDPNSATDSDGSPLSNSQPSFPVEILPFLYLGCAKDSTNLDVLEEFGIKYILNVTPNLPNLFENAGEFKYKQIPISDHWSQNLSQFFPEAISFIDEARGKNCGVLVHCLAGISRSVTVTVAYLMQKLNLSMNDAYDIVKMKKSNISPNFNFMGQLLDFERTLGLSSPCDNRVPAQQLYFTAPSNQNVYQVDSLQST

cells [8] = details: HEK293
cells [9] = assay: cells
cells [10] = details: A549
Vero [11] = assay: cells; type: functional; details: Chlorocebus sabaeus
Vero [12] = assay: inhibition of WNV-induced cytopathic effect – cell-based, CPE readout (AID 1621); type: functional; details: Chlorocebus sabaeus
Vero [13] = assay: cells; type: functional, cell-based; details: Chlorocebus sabaeus
Estrogen receptor = molecular target: T2, Estrogen receptor (Homo sapiens, UniProt P03372); assay: ERα coactivator recruitment enhancers – biochemical, TR-FRET, ERα LBD, dose response (AID 737)
T2 sequence (P03372 whole entry): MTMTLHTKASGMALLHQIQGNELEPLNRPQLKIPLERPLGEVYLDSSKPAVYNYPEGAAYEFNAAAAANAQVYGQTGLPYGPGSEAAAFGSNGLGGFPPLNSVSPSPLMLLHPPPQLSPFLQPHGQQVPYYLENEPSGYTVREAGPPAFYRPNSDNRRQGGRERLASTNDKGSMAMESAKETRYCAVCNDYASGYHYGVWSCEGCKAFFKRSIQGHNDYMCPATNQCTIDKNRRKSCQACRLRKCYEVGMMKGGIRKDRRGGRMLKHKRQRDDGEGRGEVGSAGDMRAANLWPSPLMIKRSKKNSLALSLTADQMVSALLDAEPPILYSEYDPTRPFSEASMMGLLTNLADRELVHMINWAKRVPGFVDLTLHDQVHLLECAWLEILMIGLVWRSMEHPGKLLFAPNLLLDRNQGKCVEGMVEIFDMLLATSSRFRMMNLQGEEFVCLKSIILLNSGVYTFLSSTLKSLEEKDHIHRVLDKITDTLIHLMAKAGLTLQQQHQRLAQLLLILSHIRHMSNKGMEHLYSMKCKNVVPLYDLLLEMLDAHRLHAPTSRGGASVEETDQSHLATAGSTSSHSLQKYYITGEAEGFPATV

[14] = molecular target: SWI/SNF-related matrix-associated actin-dependent regulator of chromatin subfamily A member 2 (Homo sapiens, UniProt P51531); assay: Luminescence-based cell-based high throughput dose response assay to identify activators of the function of SWI/SNF related, matrix associated, actin dependent regulator of chromatin, subfamily a, member 2 (SMARCA2, BRM).; type: functional
[15] = molecular target: T3, DNA repair protein RAD52 homolog (Homo sapiens, UniProt P43351); type: functional, biochemical
T3 sequence (P43351 whole entry): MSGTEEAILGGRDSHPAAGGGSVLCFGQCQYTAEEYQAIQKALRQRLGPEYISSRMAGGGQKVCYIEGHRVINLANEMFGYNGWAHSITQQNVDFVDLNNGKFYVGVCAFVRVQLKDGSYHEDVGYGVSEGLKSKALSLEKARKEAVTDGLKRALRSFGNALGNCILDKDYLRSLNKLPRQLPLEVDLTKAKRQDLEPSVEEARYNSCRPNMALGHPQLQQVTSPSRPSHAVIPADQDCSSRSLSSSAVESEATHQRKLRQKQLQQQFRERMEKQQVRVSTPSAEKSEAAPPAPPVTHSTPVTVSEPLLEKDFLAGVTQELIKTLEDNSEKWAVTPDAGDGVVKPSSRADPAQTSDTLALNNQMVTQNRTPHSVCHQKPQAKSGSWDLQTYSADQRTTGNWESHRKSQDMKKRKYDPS

[16] = acridine orange displacement from DNA – biochemical, fluorescence polarization, cherry-pick, artefact control for RAD54 inhibitor project, dose response (AID 651673); type: functional
[17] = molecular target: T4, DNA repair and recombination protein RAD54-like (Homo sapiens, UniProt Q92698); assay: RAD54 Holliday junction migration blockers – biochemical, fluorescence, cherry-picked samples, dose series, confirmation (AID 651657); type: functional
T4 sequence (Q92698 whole entry): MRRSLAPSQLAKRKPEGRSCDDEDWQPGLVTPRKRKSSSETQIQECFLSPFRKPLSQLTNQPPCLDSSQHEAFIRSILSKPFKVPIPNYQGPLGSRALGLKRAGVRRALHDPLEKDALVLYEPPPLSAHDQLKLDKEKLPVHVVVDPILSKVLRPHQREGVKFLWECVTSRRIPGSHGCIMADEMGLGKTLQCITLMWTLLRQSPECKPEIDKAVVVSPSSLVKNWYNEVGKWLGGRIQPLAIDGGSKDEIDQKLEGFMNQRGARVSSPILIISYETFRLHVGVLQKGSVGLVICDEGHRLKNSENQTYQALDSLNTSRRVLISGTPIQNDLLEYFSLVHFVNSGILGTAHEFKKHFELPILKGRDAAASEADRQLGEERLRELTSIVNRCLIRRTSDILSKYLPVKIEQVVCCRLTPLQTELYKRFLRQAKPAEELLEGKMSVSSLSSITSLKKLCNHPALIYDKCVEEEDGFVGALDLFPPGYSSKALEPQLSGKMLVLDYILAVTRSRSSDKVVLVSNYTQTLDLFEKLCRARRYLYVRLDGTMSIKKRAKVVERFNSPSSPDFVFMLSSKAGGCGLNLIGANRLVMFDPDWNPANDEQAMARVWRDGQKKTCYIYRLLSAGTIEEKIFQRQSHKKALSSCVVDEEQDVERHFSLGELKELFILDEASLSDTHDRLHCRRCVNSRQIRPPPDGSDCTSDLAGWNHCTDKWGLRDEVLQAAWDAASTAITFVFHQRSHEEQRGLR

[18] = molecular target: T5, Low molecular weight phosphotyrosine protein phosphatase (Homo sapiens, UniProt P24666); type: functional; details: read-out: IC50_Mean
T5 sequence (P24666 whole entry): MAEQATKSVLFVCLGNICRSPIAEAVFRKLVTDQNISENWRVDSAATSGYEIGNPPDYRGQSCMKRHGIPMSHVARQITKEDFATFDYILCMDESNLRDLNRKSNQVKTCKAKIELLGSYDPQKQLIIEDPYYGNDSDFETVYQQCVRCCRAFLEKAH

[19] = molecular target: T5, Low molecular weight phosphotyrosine protein phosphatase; assay: inhibition of LMPTP-A enzymatic activity – biochemical, OMFP substrate, fluorescence intensity, set 2, dose response (AID 743307); type: functional
[20] = molecular target: T5, Low molecular weight phosphotyrosine protein phosphatase; type: functional; details: read-out: IC50_Mean; remark: listed apart in the source
[21] = Counterscreen for activators of the function of SWI/SNF related, matrix associated, actin dependent regulator of chromatin, subfamily a, member 2 (SMARCA2, BRM): Luminescence-based cell-based high throughput dose response assay to identify non-selective compounds using the VP16 reporter assay.; type: functional
[22] = molecular target: T5, Low molecular weight phosphotyrosine protein phosphatase; assay: inhibition of human LMPTP enzyme activity – biochemical, absorbance, pNPP substrate, LMPTP-A isoform, set 2, orthogonal assay, dose response (AID 743308); type: functional
[23] = molecular target: T6, Mannose-6-phosphate isomerase (Homo sapiens, UniProt P34949); assay: MPI enzyme activity inhibition – biochemical, fluorescence intensity, coupled assay, primary screen (AID 1209)
T6 sequence (P34949 whole entry): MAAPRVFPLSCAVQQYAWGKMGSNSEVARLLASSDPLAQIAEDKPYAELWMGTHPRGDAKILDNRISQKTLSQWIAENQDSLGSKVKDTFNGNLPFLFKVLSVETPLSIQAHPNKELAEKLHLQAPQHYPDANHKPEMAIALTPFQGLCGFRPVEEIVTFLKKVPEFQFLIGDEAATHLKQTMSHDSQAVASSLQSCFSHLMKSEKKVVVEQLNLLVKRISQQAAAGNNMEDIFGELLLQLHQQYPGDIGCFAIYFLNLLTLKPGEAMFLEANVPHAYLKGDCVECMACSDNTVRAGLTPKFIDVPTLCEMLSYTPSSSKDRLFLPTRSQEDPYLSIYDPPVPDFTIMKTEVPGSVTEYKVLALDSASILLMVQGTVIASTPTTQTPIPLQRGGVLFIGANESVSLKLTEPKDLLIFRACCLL

[24] = molecular target: T7, Voltage-gated N-type calcium channel alpha-1B subunit/Amyloid beta A4 precursor protein-binding family A member 1 (Homo sapiens, UniProt Q00975+Q02410); type: protein assay
[25] = molecular target: Glucose-6-phosphate 1-dehydrogenase (Homo sapiens, UniProt P11413); assay: inhibition of Homo sapiens G6PD, dose series – biochemical, fluorescence, selectivity assay for P. falciparum G6PD inhibitor project, dose response (AID 504792); type: functional
[26] = molecular target: T7, Voltage-gated N-type calcium channel alpha-1B subunit/Amyloid beta A4 precursor protein-binding family A member 1; type: protein assay; remark: listed apart in the source
[27] = Luminescent dose response cell-based high throughput screening assay for inhibitors of the Janus kinase 2 mutant JAK2V617F. [Related pubchem assays: 1446 (Primary screen.), 1521 (Confirmation assay.), 1486 (Counter screen.)]; type: functional
[28] = Luminescence Cell-Based Dose Confirmation HTS to Identify Inhibitors of Polyadenylation.; type: functional
[29] = molecular target: Solute carrier family 12 member 2/member 5 (Homo sapiens, UniProt P55011+Q9H2X9); assay: KCC2 and NKCC1 inhibition by rubidium flux, cell-based, NKCC1 counter-screen (AID 1734); type: functional, HEK293

T7 sequence (Q00975 whole entry): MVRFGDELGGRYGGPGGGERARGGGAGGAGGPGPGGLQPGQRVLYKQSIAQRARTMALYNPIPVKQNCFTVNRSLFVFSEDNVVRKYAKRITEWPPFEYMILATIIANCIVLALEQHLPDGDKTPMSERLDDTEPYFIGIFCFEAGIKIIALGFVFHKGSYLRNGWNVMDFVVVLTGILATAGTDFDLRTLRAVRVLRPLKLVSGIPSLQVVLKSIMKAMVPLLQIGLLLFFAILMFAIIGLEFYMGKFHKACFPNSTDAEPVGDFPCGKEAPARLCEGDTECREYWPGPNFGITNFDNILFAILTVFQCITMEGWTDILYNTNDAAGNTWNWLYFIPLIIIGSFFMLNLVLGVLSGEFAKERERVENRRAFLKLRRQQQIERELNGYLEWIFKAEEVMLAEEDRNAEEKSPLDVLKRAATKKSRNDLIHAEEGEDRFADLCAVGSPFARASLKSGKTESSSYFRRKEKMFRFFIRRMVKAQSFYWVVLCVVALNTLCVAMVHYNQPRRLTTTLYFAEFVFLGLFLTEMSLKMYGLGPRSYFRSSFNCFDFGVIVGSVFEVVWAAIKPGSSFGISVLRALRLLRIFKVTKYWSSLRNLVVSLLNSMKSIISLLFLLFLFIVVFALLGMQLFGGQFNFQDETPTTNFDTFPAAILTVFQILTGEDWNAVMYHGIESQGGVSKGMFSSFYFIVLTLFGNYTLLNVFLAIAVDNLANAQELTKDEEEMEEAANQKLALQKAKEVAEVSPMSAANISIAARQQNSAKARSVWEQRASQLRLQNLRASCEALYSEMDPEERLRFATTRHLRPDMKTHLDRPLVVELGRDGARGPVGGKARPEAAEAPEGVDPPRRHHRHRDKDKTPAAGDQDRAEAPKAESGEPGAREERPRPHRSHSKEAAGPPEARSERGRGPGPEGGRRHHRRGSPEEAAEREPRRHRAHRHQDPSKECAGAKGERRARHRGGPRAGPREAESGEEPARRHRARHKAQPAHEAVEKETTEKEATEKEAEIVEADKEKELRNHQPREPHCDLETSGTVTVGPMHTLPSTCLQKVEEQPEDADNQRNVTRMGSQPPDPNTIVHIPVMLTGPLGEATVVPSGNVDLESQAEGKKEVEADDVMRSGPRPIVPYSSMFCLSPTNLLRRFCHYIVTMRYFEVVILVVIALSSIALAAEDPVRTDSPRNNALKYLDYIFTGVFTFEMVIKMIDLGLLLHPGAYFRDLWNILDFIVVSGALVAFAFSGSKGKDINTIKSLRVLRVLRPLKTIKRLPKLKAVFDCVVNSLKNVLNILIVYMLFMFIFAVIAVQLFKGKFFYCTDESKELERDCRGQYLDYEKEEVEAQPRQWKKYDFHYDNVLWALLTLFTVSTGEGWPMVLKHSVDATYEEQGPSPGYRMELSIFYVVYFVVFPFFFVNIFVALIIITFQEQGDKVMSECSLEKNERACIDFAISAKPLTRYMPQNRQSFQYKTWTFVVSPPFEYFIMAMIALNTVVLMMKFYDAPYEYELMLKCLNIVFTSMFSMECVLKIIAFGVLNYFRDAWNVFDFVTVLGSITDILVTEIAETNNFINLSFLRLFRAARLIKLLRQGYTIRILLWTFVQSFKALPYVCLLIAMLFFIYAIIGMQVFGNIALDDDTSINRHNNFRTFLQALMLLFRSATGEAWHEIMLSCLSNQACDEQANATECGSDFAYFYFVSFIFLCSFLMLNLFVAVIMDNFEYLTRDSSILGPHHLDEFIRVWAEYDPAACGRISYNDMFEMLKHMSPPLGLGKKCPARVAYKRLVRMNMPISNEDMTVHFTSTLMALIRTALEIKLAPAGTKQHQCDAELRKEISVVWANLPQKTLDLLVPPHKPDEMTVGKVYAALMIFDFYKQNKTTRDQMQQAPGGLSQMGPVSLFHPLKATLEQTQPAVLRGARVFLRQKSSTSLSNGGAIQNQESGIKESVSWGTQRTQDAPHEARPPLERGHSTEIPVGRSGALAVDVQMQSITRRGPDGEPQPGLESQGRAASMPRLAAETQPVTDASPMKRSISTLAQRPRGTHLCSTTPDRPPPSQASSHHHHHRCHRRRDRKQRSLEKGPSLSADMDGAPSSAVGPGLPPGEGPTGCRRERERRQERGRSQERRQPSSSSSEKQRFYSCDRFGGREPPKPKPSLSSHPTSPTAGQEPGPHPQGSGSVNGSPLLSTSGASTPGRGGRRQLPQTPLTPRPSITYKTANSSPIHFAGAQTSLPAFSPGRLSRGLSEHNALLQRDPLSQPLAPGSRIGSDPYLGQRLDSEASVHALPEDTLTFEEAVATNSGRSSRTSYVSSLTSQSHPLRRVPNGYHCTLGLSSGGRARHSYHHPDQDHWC
T7 sequence (Q02410 whole entry): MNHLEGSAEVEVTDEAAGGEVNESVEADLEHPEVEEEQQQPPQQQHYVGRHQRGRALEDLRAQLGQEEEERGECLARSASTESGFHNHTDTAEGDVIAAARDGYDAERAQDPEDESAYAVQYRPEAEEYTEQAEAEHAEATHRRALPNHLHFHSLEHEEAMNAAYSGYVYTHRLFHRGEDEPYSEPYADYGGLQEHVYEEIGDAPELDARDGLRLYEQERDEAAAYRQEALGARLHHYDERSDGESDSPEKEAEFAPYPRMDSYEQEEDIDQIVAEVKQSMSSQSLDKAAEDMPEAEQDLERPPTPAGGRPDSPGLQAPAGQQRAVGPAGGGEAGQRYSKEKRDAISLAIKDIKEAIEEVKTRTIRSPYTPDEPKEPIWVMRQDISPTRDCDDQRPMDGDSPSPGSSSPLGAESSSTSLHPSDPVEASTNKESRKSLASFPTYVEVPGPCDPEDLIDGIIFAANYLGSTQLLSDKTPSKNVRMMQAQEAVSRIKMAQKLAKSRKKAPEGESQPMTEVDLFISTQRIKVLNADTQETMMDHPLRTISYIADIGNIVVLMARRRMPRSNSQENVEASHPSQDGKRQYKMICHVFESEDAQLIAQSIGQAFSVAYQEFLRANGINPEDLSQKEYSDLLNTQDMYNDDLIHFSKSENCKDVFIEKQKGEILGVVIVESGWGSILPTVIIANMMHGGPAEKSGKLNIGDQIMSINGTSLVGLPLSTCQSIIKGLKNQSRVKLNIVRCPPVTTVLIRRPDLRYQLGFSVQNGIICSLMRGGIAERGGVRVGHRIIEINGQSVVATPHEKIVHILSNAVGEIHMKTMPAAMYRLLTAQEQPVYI
Chain of Sphingosine 1-phosphate receptor 2 (O95136 whole entry): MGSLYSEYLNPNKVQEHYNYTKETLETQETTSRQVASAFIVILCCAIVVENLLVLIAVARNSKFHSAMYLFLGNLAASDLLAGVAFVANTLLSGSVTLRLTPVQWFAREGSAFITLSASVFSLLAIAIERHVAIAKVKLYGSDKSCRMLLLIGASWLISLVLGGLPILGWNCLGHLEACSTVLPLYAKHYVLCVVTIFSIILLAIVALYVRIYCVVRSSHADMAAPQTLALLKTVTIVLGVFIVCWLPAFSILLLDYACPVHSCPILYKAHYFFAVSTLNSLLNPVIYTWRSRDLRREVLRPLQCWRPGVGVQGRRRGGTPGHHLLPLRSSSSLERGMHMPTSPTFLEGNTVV
Chain of Cytochrome P450 3A4 (P08684 whole entry): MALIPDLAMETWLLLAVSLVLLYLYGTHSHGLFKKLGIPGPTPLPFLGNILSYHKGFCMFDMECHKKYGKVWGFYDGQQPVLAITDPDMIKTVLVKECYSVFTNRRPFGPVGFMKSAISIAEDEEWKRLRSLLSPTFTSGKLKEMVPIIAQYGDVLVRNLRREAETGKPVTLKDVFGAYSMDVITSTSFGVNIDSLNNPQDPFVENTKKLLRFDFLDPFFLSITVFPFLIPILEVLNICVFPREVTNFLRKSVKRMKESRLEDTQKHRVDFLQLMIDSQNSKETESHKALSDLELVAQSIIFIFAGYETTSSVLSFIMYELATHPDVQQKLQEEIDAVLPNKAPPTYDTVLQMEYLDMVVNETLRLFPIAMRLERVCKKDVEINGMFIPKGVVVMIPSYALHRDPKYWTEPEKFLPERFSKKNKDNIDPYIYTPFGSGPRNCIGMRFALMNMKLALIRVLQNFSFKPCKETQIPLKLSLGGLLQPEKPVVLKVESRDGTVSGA
Chain of Cytochrome P450 2C19 (P33261 whole entry): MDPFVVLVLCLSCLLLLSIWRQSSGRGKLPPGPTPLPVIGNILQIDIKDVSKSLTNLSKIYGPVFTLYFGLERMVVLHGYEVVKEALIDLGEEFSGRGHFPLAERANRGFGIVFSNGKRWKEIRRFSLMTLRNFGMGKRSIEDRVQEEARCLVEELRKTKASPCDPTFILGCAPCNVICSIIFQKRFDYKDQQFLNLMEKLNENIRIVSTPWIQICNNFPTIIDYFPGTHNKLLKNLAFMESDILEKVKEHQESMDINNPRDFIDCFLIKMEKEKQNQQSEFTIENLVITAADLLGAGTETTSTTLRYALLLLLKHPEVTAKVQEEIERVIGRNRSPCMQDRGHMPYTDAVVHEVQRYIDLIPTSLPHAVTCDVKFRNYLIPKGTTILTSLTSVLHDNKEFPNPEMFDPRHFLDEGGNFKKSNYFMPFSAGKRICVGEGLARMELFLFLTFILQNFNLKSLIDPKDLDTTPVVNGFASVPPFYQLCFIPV
Chain of Glucose-6-phosphate 1-dehydrogenase (P11413 whole entry): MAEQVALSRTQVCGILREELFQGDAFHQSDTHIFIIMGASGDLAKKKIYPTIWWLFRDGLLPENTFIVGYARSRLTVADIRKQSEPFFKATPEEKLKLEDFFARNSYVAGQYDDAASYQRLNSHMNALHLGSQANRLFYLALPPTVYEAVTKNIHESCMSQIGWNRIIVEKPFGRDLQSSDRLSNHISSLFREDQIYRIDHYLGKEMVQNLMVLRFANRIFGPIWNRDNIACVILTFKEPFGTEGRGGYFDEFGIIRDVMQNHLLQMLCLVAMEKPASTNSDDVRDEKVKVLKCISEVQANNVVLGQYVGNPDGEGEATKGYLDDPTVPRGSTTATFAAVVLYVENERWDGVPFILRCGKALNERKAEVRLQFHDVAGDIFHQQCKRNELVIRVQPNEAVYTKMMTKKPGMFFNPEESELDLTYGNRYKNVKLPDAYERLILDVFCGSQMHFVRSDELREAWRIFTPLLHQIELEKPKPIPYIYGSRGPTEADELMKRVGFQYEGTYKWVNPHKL

CC(=O)Nc1cccc(C(=O)/C=C/c2ccc(F)cc2)c1
CC50 (Vero [1]): 20.6 µM (active)

COc1ccc(-c2coc3cc4oc(=O)cc(C)c4cc23)cc1F
AC50 (Cytochrome P450 2C9): 5.01 µM (inconclusive) | IC50 [2]: 12.5 µM (not active)

CCOC(=O)OCC1OC(c2ccccc2)C=CC1Oc1cccc(N(C)C)c1 (stereo not given)
AC50 (Cytochrome P450 3A4): 3.16 µM (inconclusive) | AC50 (Cytochrome P450 2C19): 3.16 µM (inconclusive)

O=C(OCC(=O)N1CCN(C(=O)c2ccco2)CC1)c1cc(-c2cccc(Br)c2)nc2ccccc12
CC50 [3]: 14.4 µM (active) | AC50 [4]: 4.25 µM (active) | IC50 [5]: > 100 µM (active)

Cc1cc(C(=O)CN2C(=O)NC(Cc3ccccc3)C2=O)c(C)n1Cc1ccccc1 (stereo not given)
EC50 [6]: > 30 µM (not active)

COc1ccc(Cn2c(C)nc3c(c2=O)c2nc4ccccc4nc2n3Cc2ccco2)cc1
IC50 [7]: 6.78 µM (active)

Cc1cccn2c(=O)c3cc(C(=O)NCCN4CCOCC4)c(=N)n(Cc4ccc(F)cc4)c3nc12
AC50 (cells [8]): 48.4 µM (active) | AC50 (cells [9]): 1.96 µM (active) | AC50 (cells [10]): 18.3 µM (active) | CC50 (Vero [11]): > 25 µM (active) | IC50 (Vero [12]): 25.6 µM (active) | IC50 (Vero [13]): > 25 µM (active)

O=C(Nc1nccs1)c1nc(-c2ccccc2)n(-c2ccccc2)n1
EC50 (Estrogen receptor): 18.6 µM (active)

c1ccc(-c2cc(NCCN3CCCCC3)c3ccccc3n2)cc1
EC50 [14]: 10.9 µM (inactive) | AC50 [15]: < 3.63 µM (active) | AC50 [16]: 58.8 µM (active) | AC50 [17]: 4.86 µM (active) | IC50 [18]: 5.8 µM (active) | IC50 [19]: 3.7 µM (active) | IC50 [20]: 3.49 µM (active) | EC50 [21]: > 91.2 µM (inactive) | IC50 [22]: 8.37 µM (active)

COc1ccc(N2CSC3=C(C#N)C(c4cc(OC)c(OC)cc4OC)CC(=O)N3C2)c(OC)c1 (stereo not given)
IC50 [23]: 4.3 µM (active) | IC50 [24]: 11.3 µM (active) | IC50 [25]: 42.5 µM (inactive) | IC50 [26]: 42.3 µM (active)

O=C(NC1C=CS(=O)(=O)C1)c1sc2ccccc2c1Cl (stereo not given)
IC50 [27]: 2.82 µM (active) | CC50 (Vero [11]): 23.9 µM (active) | IC50 (Vero [13]): > 25 µM (active)

COc1cc(C2CC(=O)Oc3c(C(CCN4CCOCC4)c4ccc(N(C)C)cc4)c(OC)cc(OC)c32)cc(OC)c1OC (stereo not given)
EC50 [28]: > 120 µM (not active)

CC1Cc2ccccc2N1C(=O)c1ccc(N2CCCC2)c([N+](=O)[O-])c1 (stereo not given)
IC50 [29]: 51 µM (active)
